In ChEMBL document CHEMBL1201862, “PubChem BioAssay data set” (2004):
One block for each compound: values may come before it. Activity calls are given as the source filed them.

Tests used:
CHO = test: cytotoxicity in TLR9-MyD88 CHO cells, dose response, cytotoxicity control for TLR9-MyD88 binding inhibitor project, cell-based, luminescence (AID 588339); format: functional, hamster; conditions: Cricetulus griseus;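 also: CHO cells stably coexpressing TLR9 and MyD88 fusions from primary screen; compound exposure lasted 48 hours before viability readout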
HEK293 [1] = test: NOD1 signaling inhibitors, primary screen, cell-based, luminescence, uHTS (AID 1578); format: functional; conditions: Homo sapiens
HEK293 [2] = test: cells; format: functional, cell-based; conditions: Homo sapiens
Vero = Vero cell cytotoxicity, cytotoxicity control for flavivirus capping enzyme inhibitors (AID 588742); format: functional; conditions: Chlorocebus sabaeus
HEK293 [3] = test: NOD2 signaling inhibitors in MDP-stimulated cells, cell-based, uHTS, luminescence (AID 2001); format: functional; conditions: Homo sapiens
HEK293 [4] = test: cells; format: functional, cell-based; conditions: Homo sapiens; remark: listed apart in the source
HEK293 [5] = test: cells; format: functional, cell-based; conditions: Homo sapiens; remark: listed apart in the source
[6] = Counterscreen for inhibitors of Trypanosoma brucei methionyl tRNA synthetase (MetRS): Luminescence-based cell-based high throughput dose response assay to identify compounds that are cytotoxic to Jurkat human T lymphocyte cells.; format: functional
[7] = target: Nucleotide-binding oligomerization domain-containing protein 2 (Homo sapiens, UniProt Q9HC29); test: NOD2 signaling inhibitors, cell-based, luminescence, uHTS, HEK293 (AID 1566); format: functional
[8] = target: Lysine-specific demethylase 4C (Homo sapiens, UniProt Q9H3R0); test: GASC-1 (JMJD2C) histone demethylase inhibitors, dose response, biochemical, DELFIA europium, cherry-picked samples (AID 488835); format: functional
Interleukin-8 = Interleukin-8 (Homo sapiens, UniProt P10145); test: Dose Response confirmation of uHTS small molecule hits for cystic fibrosis induced NFkb Inhibitors in a PAF-induced IL8 counterscreen.; format: functional; conditions: read-out: IC50_Mean
HEK293 [9] = test: inhibitors of LMP1-driven NF-kB reporter, dose response, cell-based, HEK293, luciferase, cherry-pick (AID 588343); format: functional; conditions: Homo sapiens
[10] = target: Latent membrane protein 1 (Human herpesvirus 4 (strain B95-8), UniProt P03230); test: TES1-eGFP NF-kB reporter inhibition versus Tet-On dsRED, dose response, selectivity assay for LMP1 NF-kB inhibitor project, imaging, HEK293T, dual-color eGFP/dsRED, cherry-picks (AID 588398); format: functional, cell-based
Genome polyprotein = Genome polyprotein (dengue virus type 2, UniProt P29990); test: Dengue-2 NS5 methyltransferase inhibitors, primary screen, biochemical, confirmation dose response (AID 588689); format: functional
[11] = Luminescence Cell-Based Dose Retest to Confirm Inhibitors of Cancer Stem Cells. [Related pubchem assays (depositor defined):AID2717, AID2721]; format: functional; conditions: Homo sapiens
[12] = target: Heat shock protein HSP 90-alpha (Homo sapiens, UniProt P07900); format: functional, organism-based
[13] = target: T1, Sentrin-specific protease 7 (Homo sapiens, UniProt Q9BQF6); format: functional;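 also: Luminescence-based dose-response confirmation of ultra-high-throughput screening hits, measuring inhibition of SENP7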
T1 sequence (Q9BQF6 whole entry): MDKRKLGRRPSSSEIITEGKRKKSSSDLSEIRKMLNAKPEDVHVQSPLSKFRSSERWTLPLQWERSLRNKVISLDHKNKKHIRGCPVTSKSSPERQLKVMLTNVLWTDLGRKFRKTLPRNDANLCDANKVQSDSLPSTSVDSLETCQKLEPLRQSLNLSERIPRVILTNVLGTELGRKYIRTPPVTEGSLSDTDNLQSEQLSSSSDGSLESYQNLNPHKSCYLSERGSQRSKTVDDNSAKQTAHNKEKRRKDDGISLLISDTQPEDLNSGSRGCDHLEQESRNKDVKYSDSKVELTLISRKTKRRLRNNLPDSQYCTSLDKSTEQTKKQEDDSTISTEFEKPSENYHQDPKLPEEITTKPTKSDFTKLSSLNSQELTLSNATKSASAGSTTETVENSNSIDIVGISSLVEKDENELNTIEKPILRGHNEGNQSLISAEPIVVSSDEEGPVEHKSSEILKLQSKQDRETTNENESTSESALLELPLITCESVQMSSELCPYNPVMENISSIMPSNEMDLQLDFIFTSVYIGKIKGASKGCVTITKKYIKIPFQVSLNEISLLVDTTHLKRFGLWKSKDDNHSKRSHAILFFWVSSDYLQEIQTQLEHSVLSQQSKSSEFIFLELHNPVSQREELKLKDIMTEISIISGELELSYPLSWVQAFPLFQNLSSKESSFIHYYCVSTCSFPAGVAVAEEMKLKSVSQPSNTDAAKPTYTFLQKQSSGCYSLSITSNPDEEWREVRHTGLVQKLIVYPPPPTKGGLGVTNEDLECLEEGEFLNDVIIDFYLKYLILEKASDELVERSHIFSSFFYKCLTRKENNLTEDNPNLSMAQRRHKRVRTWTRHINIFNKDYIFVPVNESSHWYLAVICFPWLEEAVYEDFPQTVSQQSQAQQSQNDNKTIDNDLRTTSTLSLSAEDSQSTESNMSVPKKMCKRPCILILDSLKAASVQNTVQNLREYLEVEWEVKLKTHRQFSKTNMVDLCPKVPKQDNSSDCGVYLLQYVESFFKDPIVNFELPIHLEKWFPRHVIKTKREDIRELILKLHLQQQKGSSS

[14] = target: T2, Sentrin-specific protease 6 (Homo sapiens, UniProt Q9GZR1); format: functional;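 also: Luminescence-based dose-response confirmatory assay of SENP6 inhibition, following up an ultra-high-throughput screen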
T2 sequence (Q9GZR1 whole entry): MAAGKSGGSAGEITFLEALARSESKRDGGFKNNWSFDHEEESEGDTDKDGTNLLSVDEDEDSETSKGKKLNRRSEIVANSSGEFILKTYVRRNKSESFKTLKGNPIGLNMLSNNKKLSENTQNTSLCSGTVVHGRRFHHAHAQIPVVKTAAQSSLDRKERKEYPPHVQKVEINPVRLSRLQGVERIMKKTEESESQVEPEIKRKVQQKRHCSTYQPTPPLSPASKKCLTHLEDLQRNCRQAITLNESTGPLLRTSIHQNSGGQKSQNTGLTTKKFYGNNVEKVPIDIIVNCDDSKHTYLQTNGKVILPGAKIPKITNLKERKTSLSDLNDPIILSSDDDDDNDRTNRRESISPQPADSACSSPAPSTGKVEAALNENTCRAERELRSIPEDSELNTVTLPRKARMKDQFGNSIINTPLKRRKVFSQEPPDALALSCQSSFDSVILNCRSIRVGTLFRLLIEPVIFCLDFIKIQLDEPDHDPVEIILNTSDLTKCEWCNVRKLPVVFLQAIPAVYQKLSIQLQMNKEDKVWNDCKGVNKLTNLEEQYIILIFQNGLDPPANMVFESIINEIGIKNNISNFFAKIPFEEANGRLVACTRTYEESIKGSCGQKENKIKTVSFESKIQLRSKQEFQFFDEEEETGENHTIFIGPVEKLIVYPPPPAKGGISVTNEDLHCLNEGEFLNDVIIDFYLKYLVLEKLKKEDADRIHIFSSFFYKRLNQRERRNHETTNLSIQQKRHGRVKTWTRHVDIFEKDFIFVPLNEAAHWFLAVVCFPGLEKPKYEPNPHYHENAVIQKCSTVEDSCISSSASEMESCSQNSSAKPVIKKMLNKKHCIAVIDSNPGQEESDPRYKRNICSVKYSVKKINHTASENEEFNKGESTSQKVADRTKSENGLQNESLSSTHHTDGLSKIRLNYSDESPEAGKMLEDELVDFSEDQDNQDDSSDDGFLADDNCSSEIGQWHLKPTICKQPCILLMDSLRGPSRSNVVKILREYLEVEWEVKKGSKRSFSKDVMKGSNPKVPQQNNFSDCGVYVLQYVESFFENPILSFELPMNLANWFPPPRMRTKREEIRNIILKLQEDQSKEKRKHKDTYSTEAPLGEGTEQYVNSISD

[15] = HepG2 cell cytotoxicity, dose response, cytotoxicity control, ATP luminescence, cherry-pick, activator set 2 (AID 1053143); format: functional, cell-based
[16] = target: T3, G-protein coupled receptor 55 (Homo sapiens, UniProt Q9Y2T6); test: GPR55 agonists via beta-arrestin recruitment, primary screen, imaging, U2OS cells, beta-arrestin-GFP redistribution (AID 1961); format: functional
Cannabinoid receptor 2 [17] = target: T4, Cannabinoid receptor 2 (Homo sapiens, UniProt P34972); test: SAR analysis of agonists of the Cannabinoid Receptor 2 using an Image-Based Assay - Set 2. [Related pubchem assays (depositor defined):AID1961, AID1965]; format: functional
[18] = target: T3, G-protein coupled receptor 55; test: SAR analysis of selective Agonists of GPR55 using an Image-Based Assay. [Related pubchem assays (depositor defined):AID1961, AID1965]; format: functional
Caspase-3 = target: T5, Caspase-3 (Homo sapiens, UniProt P42574); format: functional;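 also: Dose-response selectivity test against caspase-3 for candidate inhibitors of sentrin-specific proteases (SENPs)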
T5 sequence (P42574 whole entry): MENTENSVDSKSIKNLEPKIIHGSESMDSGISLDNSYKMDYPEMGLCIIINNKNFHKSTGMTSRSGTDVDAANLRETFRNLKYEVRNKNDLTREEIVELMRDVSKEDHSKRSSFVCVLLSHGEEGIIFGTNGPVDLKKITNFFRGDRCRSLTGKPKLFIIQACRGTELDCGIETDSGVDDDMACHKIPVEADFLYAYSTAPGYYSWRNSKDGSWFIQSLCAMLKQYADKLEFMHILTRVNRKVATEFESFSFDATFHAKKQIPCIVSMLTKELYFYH

Cannabinoid receptor 2 [19] = target: T4, Cannabinoid receptor 2; test: SAR analysis of antagonists of the Cannabinoid Receptor 2 using an Image-Based Assay - Set 2. [Related pubchem assays (depositor defined):AID1961, AID1965]; format: functional
Cannabinoid receptor 1 = Cannabinoid receptor 1 (Homo sapiens, UniProt P21554); test: SAR analysis of antagonists of the Cannabinoid Receptor 1 using an Image-Based Assay. [Related pubchem assays (depositor defined):AID1961, AID1965]; format: functional
[20] = target: T6, Sentrin-specific protease 8 (Homo sapiens, UniProt Q96LD8); format: functional;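 also: luminescence read-out of SENP8 inhibition, dose-response confirmation following an ultra-high-throughput screen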
T6 sequence (Q96LD8 whole entry): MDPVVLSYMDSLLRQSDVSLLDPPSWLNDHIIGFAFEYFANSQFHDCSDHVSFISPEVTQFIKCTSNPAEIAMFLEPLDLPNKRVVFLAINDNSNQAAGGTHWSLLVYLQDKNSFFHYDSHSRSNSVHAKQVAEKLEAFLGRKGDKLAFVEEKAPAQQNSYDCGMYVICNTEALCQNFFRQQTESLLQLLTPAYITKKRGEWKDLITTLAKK

Cytochrome P450 1A2 = target: T7, Cytochrome P450 1A2 (Homo sapiens, UniProt P05177);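 also: PubChem cytochrome P450 panel assay, CYP1A2 panel member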
T7 sequence (P05177 whole entry): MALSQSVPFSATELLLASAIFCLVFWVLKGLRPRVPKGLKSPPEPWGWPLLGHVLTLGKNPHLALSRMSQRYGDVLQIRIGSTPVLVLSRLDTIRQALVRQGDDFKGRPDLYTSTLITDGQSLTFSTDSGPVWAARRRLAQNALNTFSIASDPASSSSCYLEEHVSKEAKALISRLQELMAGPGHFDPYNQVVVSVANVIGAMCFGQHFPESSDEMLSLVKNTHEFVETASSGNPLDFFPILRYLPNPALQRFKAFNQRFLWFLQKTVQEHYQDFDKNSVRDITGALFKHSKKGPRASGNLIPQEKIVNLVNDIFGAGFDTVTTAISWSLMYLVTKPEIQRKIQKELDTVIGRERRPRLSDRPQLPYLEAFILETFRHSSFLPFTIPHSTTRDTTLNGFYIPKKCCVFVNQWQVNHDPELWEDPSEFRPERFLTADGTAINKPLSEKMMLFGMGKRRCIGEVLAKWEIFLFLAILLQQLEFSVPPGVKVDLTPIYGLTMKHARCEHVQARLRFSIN

Cytochrome P450 2C9 = Cytochrome P450 2C9 (Homo sapiens, UniProt P11712)
Chain of Cytochrome P450 2C9 (P11712 whole entry): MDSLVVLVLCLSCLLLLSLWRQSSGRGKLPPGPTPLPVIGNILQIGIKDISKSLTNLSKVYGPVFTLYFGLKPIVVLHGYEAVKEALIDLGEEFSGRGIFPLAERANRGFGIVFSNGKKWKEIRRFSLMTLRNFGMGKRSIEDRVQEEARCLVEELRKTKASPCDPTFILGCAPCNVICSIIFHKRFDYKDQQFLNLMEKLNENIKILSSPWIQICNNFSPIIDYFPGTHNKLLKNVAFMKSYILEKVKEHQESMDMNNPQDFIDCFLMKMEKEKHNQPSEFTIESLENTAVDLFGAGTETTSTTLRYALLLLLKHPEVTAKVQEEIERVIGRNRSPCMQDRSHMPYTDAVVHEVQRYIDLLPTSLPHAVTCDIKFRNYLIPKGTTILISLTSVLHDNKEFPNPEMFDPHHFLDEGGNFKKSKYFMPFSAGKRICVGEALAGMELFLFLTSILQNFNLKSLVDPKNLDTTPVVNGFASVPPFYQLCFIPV

T3 sequence (Q9Y2T6 whole entry): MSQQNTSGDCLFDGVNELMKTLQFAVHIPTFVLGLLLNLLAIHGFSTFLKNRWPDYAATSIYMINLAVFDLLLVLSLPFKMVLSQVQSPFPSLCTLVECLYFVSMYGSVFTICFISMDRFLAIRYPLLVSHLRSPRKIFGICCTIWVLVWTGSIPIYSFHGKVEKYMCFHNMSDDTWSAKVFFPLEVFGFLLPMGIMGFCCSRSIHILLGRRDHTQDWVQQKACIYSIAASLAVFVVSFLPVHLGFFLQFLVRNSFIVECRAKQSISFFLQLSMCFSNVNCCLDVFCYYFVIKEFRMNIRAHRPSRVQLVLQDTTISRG
T4 sequence (P34972 whole entry): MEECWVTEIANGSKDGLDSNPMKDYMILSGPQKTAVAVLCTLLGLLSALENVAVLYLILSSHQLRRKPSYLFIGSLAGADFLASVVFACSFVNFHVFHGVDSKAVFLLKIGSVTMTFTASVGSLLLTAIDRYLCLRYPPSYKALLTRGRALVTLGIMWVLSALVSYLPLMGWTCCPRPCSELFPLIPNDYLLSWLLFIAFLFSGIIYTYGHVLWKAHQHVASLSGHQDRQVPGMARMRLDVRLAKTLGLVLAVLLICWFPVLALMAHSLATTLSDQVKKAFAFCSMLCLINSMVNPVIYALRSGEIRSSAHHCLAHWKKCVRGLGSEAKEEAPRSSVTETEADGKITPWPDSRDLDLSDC
Chain of Nucleotide-binding oligomerization domain-containing protein 2 (Q9HC29 whole entry, the tested form may be a part): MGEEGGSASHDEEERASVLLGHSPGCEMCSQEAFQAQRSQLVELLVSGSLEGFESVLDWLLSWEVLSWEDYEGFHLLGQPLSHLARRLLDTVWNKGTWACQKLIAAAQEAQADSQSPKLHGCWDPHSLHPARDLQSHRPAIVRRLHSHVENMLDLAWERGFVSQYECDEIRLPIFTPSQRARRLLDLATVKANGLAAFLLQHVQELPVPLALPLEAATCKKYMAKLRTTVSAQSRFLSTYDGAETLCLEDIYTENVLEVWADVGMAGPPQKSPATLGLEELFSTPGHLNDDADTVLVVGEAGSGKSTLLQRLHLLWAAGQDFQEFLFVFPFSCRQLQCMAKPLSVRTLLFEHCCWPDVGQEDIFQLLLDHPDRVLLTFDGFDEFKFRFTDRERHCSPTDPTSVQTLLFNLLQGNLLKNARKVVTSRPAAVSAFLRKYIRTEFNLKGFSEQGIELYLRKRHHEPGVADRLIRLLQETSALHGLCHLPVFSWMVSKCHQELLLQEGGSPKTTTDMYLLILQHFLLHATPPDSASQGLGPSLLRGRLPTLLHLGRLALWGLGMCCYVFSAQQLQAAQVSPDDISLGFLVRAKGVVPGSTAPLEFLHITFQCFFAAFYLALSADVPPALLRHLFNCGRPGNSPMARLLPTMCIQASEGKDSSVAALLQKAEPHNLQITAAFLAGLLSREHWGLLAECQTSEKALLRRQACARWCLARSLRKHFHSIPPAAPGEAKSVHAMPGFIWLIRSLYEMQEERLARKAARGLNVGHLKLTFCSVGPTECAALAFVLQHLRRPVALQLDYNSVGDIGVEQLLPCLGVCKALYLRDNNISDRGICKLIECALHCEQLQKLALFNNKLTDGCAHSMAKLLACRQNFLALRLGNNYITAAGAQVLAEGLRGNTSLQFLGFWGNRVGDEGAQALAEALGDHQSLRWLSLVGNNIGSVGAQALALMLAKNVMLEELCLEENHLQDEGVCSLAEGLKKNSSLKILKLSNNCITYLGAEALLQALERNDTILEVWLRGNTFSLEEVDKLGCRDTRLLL
Chain of Genome polyprotein (P29990 2492-3391 limits assumed): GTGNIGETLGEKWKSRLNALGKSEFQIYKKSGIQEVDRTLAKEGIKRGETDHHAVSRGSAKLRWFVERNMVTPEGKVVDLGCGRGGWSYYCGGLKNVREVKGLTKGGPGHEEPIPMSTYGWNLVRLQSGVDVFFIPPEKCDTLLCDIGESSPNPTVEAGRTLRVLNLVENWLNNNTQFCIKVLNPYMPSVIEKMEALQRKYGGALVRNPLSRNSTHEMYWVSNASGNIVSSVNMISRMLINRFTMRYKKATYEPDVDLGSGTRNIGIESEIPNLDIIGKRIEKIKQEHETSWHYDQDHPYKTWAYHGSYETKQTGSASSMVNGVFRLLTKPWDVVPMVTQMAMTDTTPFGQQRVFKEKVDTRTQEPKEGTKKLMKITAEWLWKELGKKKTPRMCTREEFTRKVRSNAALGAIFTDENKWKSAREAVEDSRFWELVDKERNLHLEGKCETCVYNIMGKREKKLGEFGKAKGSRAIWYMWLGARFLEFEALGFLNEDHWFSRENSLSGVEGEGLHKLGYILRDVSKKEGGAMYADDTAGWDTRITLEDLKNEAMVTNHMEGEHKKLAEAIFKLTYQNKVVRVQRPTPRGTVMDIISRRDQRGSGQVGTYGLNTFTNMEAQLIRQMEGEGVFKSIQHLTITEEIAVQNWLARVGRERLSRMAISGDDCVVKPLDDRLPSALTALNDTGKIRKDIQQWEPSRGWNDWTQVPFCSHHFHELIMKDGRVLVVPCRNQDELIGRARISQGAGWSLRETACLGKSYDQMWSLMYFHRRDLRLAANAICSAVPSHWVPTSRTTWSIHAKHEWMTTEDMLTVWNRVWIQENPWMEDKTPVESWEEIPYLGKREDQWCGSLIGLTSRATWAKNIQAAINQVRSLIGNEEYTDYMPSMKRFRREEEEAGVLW
Chain of Latent membrane protein 1 (P03230 whole entry): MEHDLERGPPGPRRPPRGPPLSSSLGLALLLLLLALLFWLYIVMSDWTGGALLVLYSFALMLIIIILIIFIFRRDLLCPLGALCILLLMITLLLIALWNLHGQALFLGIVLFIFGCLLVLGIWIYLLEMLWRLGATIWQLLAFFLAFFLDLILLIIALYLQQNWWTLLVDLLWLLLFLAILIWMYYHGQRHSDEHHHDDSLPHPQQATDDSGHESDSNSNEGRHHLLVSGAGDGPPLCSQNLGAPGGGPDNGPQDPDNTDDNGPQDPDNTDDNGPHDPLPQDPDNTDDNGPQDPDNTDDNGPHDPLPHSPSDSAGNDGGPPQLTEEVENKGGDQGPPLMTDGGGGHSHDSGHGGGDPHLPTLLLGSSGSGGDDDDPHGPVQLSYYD
Chain of Lysine-specific demethylase 4C (Q9H3R0 whole entry): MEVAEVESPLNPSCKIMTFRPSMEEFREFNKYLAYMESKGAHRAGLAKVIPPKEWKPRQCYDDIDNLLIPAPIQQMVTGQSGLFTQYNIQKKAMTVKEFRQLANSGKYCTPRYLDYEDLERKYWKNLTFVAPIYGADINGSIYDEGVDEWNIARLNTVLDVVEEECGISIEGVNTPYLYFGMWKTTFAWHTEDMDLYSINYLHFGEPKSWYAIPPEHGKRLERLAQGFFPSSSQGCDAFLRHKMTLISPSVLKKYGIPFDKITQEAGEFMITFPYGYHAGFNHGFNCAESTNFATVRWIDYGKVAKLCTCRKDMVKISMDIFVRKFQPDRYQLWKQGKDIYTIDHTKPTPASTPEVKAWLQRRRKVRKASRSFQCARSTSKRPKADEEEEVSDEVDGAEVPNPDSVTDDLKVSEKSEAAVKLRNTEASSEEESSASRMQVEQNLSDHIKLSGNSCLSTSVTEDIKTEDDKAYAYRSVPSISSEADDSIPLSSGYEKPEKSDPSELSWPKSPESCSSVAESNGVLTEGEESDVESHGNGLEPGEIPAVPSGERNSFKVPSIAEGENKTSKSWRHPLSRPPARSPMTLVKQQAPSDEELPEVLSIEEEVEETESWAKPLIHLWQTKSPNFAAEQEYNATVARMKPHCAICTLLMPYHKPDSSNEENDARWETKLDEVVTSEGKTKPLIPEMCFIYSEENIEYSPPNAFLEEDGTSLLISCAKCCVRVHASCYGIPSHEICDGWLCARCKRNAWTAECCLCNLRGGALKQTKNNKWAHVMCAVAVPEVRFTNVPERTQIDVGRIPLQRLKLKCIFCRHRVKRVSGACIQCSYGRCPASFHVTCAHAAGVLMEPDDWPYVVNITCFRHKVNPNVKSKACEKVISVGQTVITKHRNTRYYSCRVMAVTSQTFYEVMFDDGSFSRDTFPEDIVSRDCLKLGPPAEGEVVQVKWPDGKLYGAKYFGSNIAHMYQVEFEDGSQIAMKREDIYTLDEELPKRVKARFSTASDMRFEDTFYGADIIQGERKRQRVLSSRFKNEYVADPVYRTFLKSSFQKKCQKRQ
Chain of Cannabinoid receptor 1 (P21554 whole entry): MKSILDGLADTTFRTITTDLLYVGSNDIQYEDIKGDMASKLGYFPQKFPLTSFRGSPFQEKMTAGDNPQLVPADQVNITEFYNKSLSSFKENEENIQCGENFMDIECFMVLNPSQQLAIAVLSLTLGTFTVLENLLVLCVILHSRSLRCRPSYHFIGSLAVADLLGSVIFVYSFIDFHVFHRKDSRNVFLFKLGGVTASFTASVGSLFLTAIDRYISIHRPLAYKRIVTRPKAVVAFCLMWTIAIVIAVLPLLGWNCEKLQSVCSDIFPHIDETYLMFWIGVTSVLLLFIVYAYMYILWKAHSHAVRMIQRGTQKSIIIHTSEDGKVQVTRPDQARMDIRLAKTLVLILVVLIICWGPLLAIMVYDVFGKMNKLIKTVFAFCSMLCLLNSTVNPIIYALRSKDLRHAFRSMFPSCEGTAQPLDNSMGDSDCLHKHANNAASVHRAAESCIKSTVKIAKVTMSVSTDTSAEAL

SMILES: CNC(=S)N/N=C/c1ccc(OCc2ccccc2)c(Br)c1
IC50 (CHO): 7.62 µM (active)

SMILES: O=C(NCc1cc(Br)cc(Br)c1OC(=O)c1ccccc1[N+](=O)[O-])c1ccccc1
EC50 (HEK293 [1]): 6.43 µM (active)
IC50 (HEK293 [2]): > 20 µM (inactive)
CC50 (Vero): > 40 µM (active)
IC50 (HEK293 [3]): 5.6 µM (active)
IC50 (HEK293 [4]): 5.22 µM (active)
IC50 (HEK293 [5]): > 20 µM (inactive)
IC50 [6]: 50.3 µM (inactive)
EC50 [7]: 18.6 µM (active)

AC50 [8]: 11.3 µM (active)
SMILES: c1ccc2cc(CCO[C@H]3CCCCO3)ncc2c1

SMILES: COc1ccc(-c2csc3ncnc(NCCN4CCOCC4)c23)cc1
IC50 (Interleukin-8): 50.7 µM (inactive)
AC50 (HEK293 [9]): 25.3 µM (active)
AC50 [10]: 21.3 µM (active)

SMILES: CC1(C)CC[C@]2(C(=O)O)CC[C@]3(C)C(=CC[C@@H]4[C@@]5(C)CC[C@H](O[C@@H]6O[C@H](C(=O)O)[C@@H](O)[C@H](O[C@@H]7OC[C@H](O)[C@H](O)[C@H]7O)[C@H]6O)C(C)(C)[C@@H]5CC[C@]43C)[C@@H]2C1
IC50 (Genome polyprotein): 31 µM (active)
CC50 (Vero): 36.8 µM (active)
AC50 [11]: 2.85 µM (active)
AC50 [12]: 0.649 µM (active)

SMILES: CC(C)=CC(=O)Nc1ccc(OCc2ccccc2)cc1
IC50 [13]: 8.82 µM (active)
IC50 [14]: 25.9 µM (active)
AC50 [15]: > 52 µM (inactive)
EC50 [16]: 2.34 µM (active)
EC50 (Cannabinoid receptor 2 [17]): > 32 µM (inactive)
EC50 [18]: 1.89 µM (active)
IC50 (Caspase-3): 20.8 µM (active)
IC50 (Cannabinoid receptor 2 [19]): > 32 µM (inactive)
IC50 (Cannabinoid receptor 1): > 32 µM (inactive)
IC50 [20]: 28.6 µM (active)

SMILES: Cc1ccc(S(=O)(=O)O)cc1.c1cc2c(c(NC3=NCCN3)c1)CCCC2
AC50 (Cytochrome P450 1A2): inactive

AC50 (Cytochrome P450 1A2): inactive
AC50 (Cytochrome P450 2C9): inactive
SMILES: COc1cc(C(=O)NCc2ccc(OCCN(C)C)cc2)cc(OC)c1OC [TRIMETHOBENZAMIDE]
